Experimental data taken from US20150224089A1, “COMBINATIONS OF IKKi/TBK1 INHIBITORS WITH BETA ADRENERGIC AGONISTS OR SYMPATHETIC NERVOUS SYSTEM ACTIVATORS” (THE REGENTS OF THE UNIVERSITY OF MICHIGAN, priority 2014, published 2015).

Experiments:
epididymal WAT = assay: Immunoblots (HSL phosphorylation) in epididymal WAT after CL-316,243 injection in HFD-fed mice; format: in vivo; settings: HFD-fed mice pretreated with amlexanox 4 days; 5 min after CL-316,243 IP injection
Procedure: (A) Fold increase in serum FFA (left panel) and glycerol (right panel) levels 15 min after CL-316,243 injection in ND- or HFD-fed mice treated with amlexanox or vehicle control for 4 days. (B) Glycerol release from ex vivo epididymal (left panel) and inguinal (right panel) WATs after 1 hr pretreatment with amlexanox or vehicle. CL-316,243 treatment was started at time zero. (C) Immunoblots in inguinal WAT lysates from FIG. 5B after 60 min of CL-316,243 treatment. (D) cAMP levels in epididymal WAT 20 min after CL-316,243 (CL) or saline control injection in HFD-fed mice treated with amlexanox or vehicle control for 4 days. (E) Immunoblots in epididymal WAT 5 min after CL-316,243 or saline control injection in HFD-fed mice treated with amlexanox or vehicle control for 4 days. (F) Relative oxygen comsumption of mice in each treatment group.
To examine whether inhibition of TBK1 and IKKε with amlexanox reverses resistance to catecholamineinduced lipolysis in vivo by increasing stimulation of cAMP production, cAMP levels we measured in epididymal adipose tissue from mice on HFD after CL-316,243 IP injection. Levels of cAMP were increased after CL-316,243 IP injection in mice on HFD pretreated with amlexanox (FIG. 5D).

3T3-L1 adipocytes = assay: Glycerol release (lipolysis) from 3T3-L1 adipocytes; format: cell-based; settings: TNFα for 24 hr, different concentrations; 10 μM ISO or 50 μM FSK
Procedure: (A) Fold increase in Ucp1 expression in 3T3-L1 adipocytes expressing empty vector, Flag-IKKε, or Flag-IKKε K38A following treatment with or without 10 μM ISO (black bars) or 10 μM CL-316,243 (CL, gray bars) for 4 hr. (B) Glycerol release from 3T3-L1 adipocytes expressing empty vector (white bars), Flag-IKKε (black bars), or Flag-IKKε K38A (gray bars) treated with or without 10 μM ISO or 10 μM CL. (C) Immunoblots of whole cell lysates from FIG. 1B. Results were replicated in triplicate. D.E. stands for dark exposure and L.E. stands for light exposure. (D) Immunoblots of whole cell lysates from 3T3-L1 adipocytes expressing empty vector or Flag-IKKε treated with or without 50 μM FSK for 15 min. (E) cAMP levels from 3T3-L1 adipocytes expressing empty vector, Flag-IKKε, or Flag-IKKε K38A treated with or without 10 μM ISO or 50 μM FSK for 15 min.
(A) Glycerol release from 3T3-L1 adipocytes treated with or without different concentrations of TNFα as indicated for 24 hr followed by treatment with or without 10 μM ISO or 50 μM FSK. (B) cAMP levels from 3T3-L1 adipocytes treated with or without 100 ng/ml TNFα for 24 hr followed by treatment with or without 10 μM ISO or 50 μM FSK in the presence or absence of pretreatment of 50 μM Amlexanox (Am). (C) cAMP levels from 3T3-L1 adipocytes treated with or without 100 ng/ml TNFα for 24 hr followed by treatment with or without 50 μM FSK in the presence or absence of pretreatment of 1 μM CAY10576 (CAY). (D) Immunoblots of whole cell lysates from 3T3-L1 adipocytes treated with or without different concentrations of TNFα as same as FIG. 2A for 24 hr followed by treatment with or without 10 μM ISO or 50 μM FSK. Results were replicated in multiple experiments. ‘[’ indicates total HSL. ‘n.s.’ represents non-specific band. Arrow indicates CGI-58. (E) Immunoblots of whole cell lysates from 3T3-L1 adipocytes treated with or without 50 ng/ml TNFα or 100 μg/ml poly (I:C) for 24 hr followed by treatment with or without 10 μM ISO for 15 min in the presence or absence of pretreatment with increasing concentrations (0, 10, 50, and 200 μM) of amlexanox for 30 min.
The obesity-dependent increase was modeled in the noncanonical IKKs by overexpressing IKKε in 3T3-L1 adipocytes, followed by assay of glycerol release in response to ISO or CL-316,243. […] Overexpression of TBK1 reduced phosphorylation of HSL in response to isoproterenol or the adenylyl cyclase activator, forskolin (FIG. 1). Identical results were obtained when IKKε was overexpressed in 3T3-L1 adipocytes stimulated with forskolin (FIG. 1D), as detected by western blotting with an anti-phospho-PKA substrate motif antibody. […]

Q: For `CC(C)c1ccc2oc3nc(N)c(C(=O)O)cc3c(=O)c2c1` [amlexanox, 2-amino-7-isopropyl-1-azaxanthone-3-carboxylic acid; 2-amino-7-isopropyl-5-oxo-5H-chromeno[2,3-b]pyridine-3-carboxylic acid], which “HSL phosphorylation in epididymal WAT” value (epididymal WAT) is on record?
A: increased

Q: With TNFα as the compound, how does the “glycerol release in response to isoproterenol and forskolin” value (3T3-L1 adipocytes) read?
A: decreased glycerol release
